Source: US9073830B2 (Hyundai Pharm Co., Ltd., priority 2011, dated 2015)

Assays:
[1] = target: T1, human 11β-HSD1 (Homo sapiens, UniProt P28845); assay: Enzyme activity analysis on human 11β-HSD1 (HTRF cortisol, liver microsomes); type: biochemical; conditions: first value of cell
T1 construct: 100 ug/ml human/mouse liver microsomes; from tissue; host or cells: human liver microsomes
Method: (§1) After culturing at 37° C. for 2 hours, 5 μl of cryptate-labeled anti-cortisol antibody and 5 μl of d2-labeled cortisol were added thereto. After further culturing at room temperature for 2 hours, a homogeneous time-resolved fluorescence (HTRF, Cisbio) signal was measured. From each analysis, based on a standard curve calculated using cortisols of several known concentrations, an amount of produced cortisol was tested.
(§2) While an amount of cortisol, produced without the compound, was used as a control, an inhibition percentage by the test compound, at each concentration, was calculated. By using an inhibition curve calculated by coordinates of inhibition percentage to test compound concentration, an IC50 value of the compound on 11β-HSD1 was obtained.

[2] = target: T2, mouse 11β-HSD1 (Mus musculus, UniProt P50172); assay: Enzyme activity analysis on mouse 11β-HSD1 (HTRF cortisol, liver microsomes); type: biochemical; conditions: second value of cell
T2 construct: 100 ug/ml human/mouse liver microsomes; from tissue; host or cells: mouse liver microsomes
Method: as §1, §2

T2 sequence (P50172 whole entry): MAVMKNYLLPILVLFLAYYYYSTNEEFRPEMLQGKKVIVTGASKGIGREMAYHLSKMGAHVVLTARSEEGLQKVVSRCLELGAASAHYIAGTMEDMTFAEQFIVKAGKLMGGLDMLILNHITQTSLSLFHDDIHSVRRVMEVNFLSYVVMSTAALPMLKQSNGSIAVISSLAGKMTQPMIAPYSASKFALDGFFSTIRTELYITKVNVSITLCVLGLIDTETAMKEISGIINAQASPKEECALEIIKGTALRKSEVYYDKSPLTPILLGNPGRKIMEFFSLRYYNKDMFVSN
T1 sequence (P28845 whole entry): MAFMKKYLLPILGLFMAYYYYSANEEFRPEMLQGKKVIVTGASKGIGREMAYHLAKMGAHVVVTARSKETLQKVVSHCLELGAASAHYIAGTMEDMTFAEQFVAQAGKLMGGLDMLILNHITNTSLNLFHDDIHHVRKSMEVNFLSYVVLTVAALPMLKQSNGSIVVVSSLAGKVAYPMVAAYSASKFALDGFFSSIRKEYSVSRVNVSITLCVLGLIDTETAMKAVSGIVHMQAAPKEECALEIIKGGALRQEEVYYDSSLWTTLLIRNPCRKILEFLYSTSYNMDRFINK

Row | Compound | IC50 [1] [µM] | IC50 [2] [µM]
1 | CC(C)(NS(=O)(=O)c1cccc([N+](=O)[O-])c1)C(=O)NC1C2CC3CC(C2)CC1C3 (stereo not shown) [compound 66, N-(adamantane-2-yl)-2-methyl-2-(3-nitrophenylsulfonamido)propanamide] | 0.511 | 0.914
2 | CCCc1ccc(S(=O)(=O)NC(C)(C)C(=O)NC2C3CC4CC(C3)CC2C4)cc1 (stereo not shown) [compound 67, N-(adamantane-2-yl)-2-methyl-2-(4-propylphenylsulfonamido)propanamide] | 1.29 | 1.26
3 | COc1ccc(S(=O)(=O)NC(C)(C)C(=O)NC2C3CC4CC(C3)CC2C4)cc1[N+](=O)[O-] (stereo not shown) [compound 68, N-(adamantane-2-yl)-2-methyl-2-(4-methoxy-3-nitrophenylsulfonamido)propanamide] | 1.2 | 1.12
4 | CC(C)(NS(=O)(=O)c1ccccc1F)C(=O)NC1C2CC3CC1CC(O)(C3)C2 (stereo not shown) [compound 69, N-(5-hydroxyadamantane-2-yl)-2-methyl-2-(2-fluorophenylsulfonamido)propanamide] | 0.118 | 0.258
5 | CC(C)(NS(=O)(=O)c1ccccc1)C(=O)NC1C2CC3CC1CC(O)(C3)C2 (stereo not shown) [compound 70] | 0.093 | 0.378
6 | COc1ccc(S(=O)(=O)NC(C)(C)C(=O)NC2C3CC4CC2CC(O)(C4)C3)cc1 (stereo not shown) [compound 71, N-(5-hydroxyadamantane-2-yl)-2-methyl-2-(4-methoxyphenylsulfonamido)propanamide] | 0.196 | 0.631
7 | CC(C)(NS(=O)(=O)c1ccccc1C(F)(F)F)C(=O)NC1C2CC3CC1CC(O)(C3)C2 (stereo not shown) [compound 72, N-(5-hydroxyadamantane-2-yl)-2-methyl-2-(2-trifluoromethylphenylsulfonamido)propan amide] | 0.111 | 0.138
8 | CC(C)(NS(=O)(=O)c1c(F)cccc1F)C(=O)NC1C2CC3CC1CC(O)(C3)C2 (stereo not shown) [compound 74, N-(5-hydroxyadamantane-2-yl)-2-methyl-2-(2,6-difluorophenylsulfonamido)propanamide] | 0.079 | 0.305
9 | Cc1ccc([N+](=O)[O-])cc1S(=O)(=O)NC(C)(C)C(=O)NC1C2CC3CC1CC(O)(C3)C2 (stereo not shown) [compound 76, N-(5-hydroxyadamantane-2-yl)-2-methyl-2-(2-methyl-5-nitrophenylsulfonamido)propanamide] | 0.146 | 2.08
10 | CC(C)(NS(=O)(=O)c1cccc([N+](=O)[O-])c1)C(=O)NC1C2CC3CC1CC(O)(C3)C2 (stereo not shown) [compound 77, N-(5-hydroxyadamantane-2-yl)-2-methyl-2-(3-nitrophenylsulfonamido)propanamide] | 0.492 | 0.575
11 | CC(C)(NS(=O)(=O)c1ccc([N+](=O)[O-])cc1)C(=O)NC1C2CC3CC1CC(O)(C3)C2 (stereo not shown) [compound 78, N-(5-hydroxyadamantane-2-yl)-2-methyl-2-(4-nitrophenylsulfonamido)propanamide] | 0.692 | 1.21
12 | CC(C)(NS(=O)(=O)c1ccc(Cl)cc1[N+](=O)[O-])C(=O)NC1C2CC3CC1CC(O)(C3)C2 (stereo not shown) [compound 79, N-(5-hydroxyadamantane-2-yl)-2-methyl-2-(4-chloro-2-nitrophenylsulfonamido)propanamide] | 0.083 | 0.797
13 | CC(C)(NS(=O)(=O)c1ccc(F)cc1Cl)C(=O)NC1C2CC3CC1CC(O)(C3)C2 (stereo not shown) [compound 80, N-(5-hydroxyadamantane-2-yl)-2-methyl-2-(4-fluoro-2-chlorophenylsulfonamido)propan amide] | 0.072 | 0.213
14 | COc1ccc(S(=O)(=O)NC(C)(C)C(=O)NC2C3CC4CC2CC(C(N)=O)(C4)C3)cc1 (stereo not shown) [compound 86, N-4-(2-(4-methoxyphenylsulfonamido)-2-methylpropanamido)adamantane-1-carboxyamide] | > 2.5 | > 2.5
15 | CC(C)(NS(=O)(=O)c1ccc(OC(F)F)cc1)C(=O)NC1C2CC3CC1CC(C(N)=O)(C3)C2 (stereo not shown) [compound 93, N-4-(2-(4-difluoromethoxyphenylsulfonamido)-2-methylpropanamido)adamantane-1-carboxyamide] | 0.153 | 0.571
16 | CC(C)(NS(=O)(=O)c1cccnc1Cl)C(=O)NC1C2CC3CC1CC(C(N)=O)(C3)C2 (stereo not shown) [compound 96, N-4-(2-(2-chloropyridine-3-sulfonamido)-2-methylpropanamido)adamantane-1-carboxyamide] | 0.223 | 0.289
17 | CC(C)(NS(=O)(=O)Cc1ccccc1Cl)C(=O)NC1C2CC3CC1CC(C(N)=O)(C3)C2 (stereo not shown) [compound 98, N-4-(2-((2-chlorophenyl)methylsulfonamido)-2-methylpropanamido)adamantane-1-carboxyamide] | > 2.5 | > 2.5

The next compounds have a lower IC50 [1] than those just listed; values first:

Row | IC50 [1] [µM] | IC50 [2] [µM] | Compound
18 | 0.047 | 0.124 | CCCc1ccc(S(=O)(=O)NC(C)(C)C(=O)NC2C3CC4CC2CC(C(N)=O)(C4)C3)cc1 (stereo not shown) [compound 99, N-4-(2-(4-propylphenylsulfonamido)-2-methylpropanamido)adamantane-1-carboxyamide]
19 | 0.03 | 0.221 | CC(C)(NS(=O)(=O)c1ccc(Cl)cc1Cl)C(=O)NC1C2CC3CC1CC(O)(C3)C2 (stereo not shown) [compound 81, N-(5-hydroxyadamantane-2-yl)-2-methyl-2-(2,4-dichlorophenylsulfonamido)propanamide]
20 | 0.018 | 0.21 | CC(C)(NS(=O)(=O)c1ccc(Br)cc1OC(F)(F)F)C(=O)NC1C2CC3CC1CC(C(N)=O)(C3)C2 (stereo not shown) [compound 100, N-4-(2-(2-trifluoromethoxy-4-bromophenylsulfonamido)-2-methylpropanamido)adamantane-1-carboxyamide]
21 | 0.017 | 0.042 | CC(C)(NS(=O)(=O)c1cccc(Cl)c1Cl)C(=O)NC1C2CC3CC1CC(O)(C3)C2 (stereo not shown) [compound 73, N-(5-hydroxyadamantane-2-yl)-2-methyl-2-(2,3-dichlorophenylsulfonamido)propanamide]
22 | 0.016 | 0.107 | Cc1cc(C)cc(S(=O)(=O)NC(C)(C)C(=O)NC2C3CC4CC2CC(C(N)=O)(C4)C3)c1 (stereo not shown) [compound 91, N-4-(2-(3,5-dimethylphenylsulfonamido)-2-methylpropanamido)adamantane-1-carboxyamide]
23 | 0.014 | 0.056 | CC(C)(NS(=O)(=O)c1ccc(Cl)cc1Cl)C(=O)NC1C2CC3CC1CC(C(N)=O)(C3)C2 (stereo not shown) [compound 88, N-4-(2-(2,4-dichlorophenylsulfonamido)-2-methylpropanamido)adamantane-1-carboxyamide]
24 | 0.013 | 0.123 | Cc1ccc(F)c(S(=O)(=O)NC(C)(C)C(=O)NC2C3CC4CC2CC(C(N)=O)(C4)C3)c1 (stereo not shown) [compound 94, N-4-(2-(2-fluoro-5-methylphenylsulfonamido)-2-methylpropanamido)adamantane-1-carboxyamide]
25 | 0.013 | 0.144 | Cc1ccc(F)cc1S(=O)(=O)NC(C)(C)C(=O)NC1C2CC3CC1CC(C(N)=O)(C3)C2 (stereo not shown) [compound 95, N-4-(2-(2-methyl-5-fluorophenylsulfonamido)-2-methylpropanamido)adamantane-1-carboxyamide]
26 | 0.006 | 0.005 | CC(C)(NS(=O)(=O)c1cccc2cccnc12)C(=O)NC1C2CC3CC1CC(O)(C3)C2 (stereo not shown) [compound 75, N-(5-hydroxyadamantane-2-yl)-2-methyl-2-(8-quinolinesulfonamido)propanamide]
